According to PMC6271394, “Catechins and Procyanidins of Ginkgo biloba Show Potent Activities towards the Inhibition of β-Amyloid Peptide Aggregation and Destabilization of Preformed Fibrils” (Molecules, 2014):

How the values were obtained:
Aβ42 [1] = target: T1, Aβ42 (Homo sapiens, UniProt P05067); set-up: method as in PMID 24727418; conditions: earlier work of the same authors; cited from earlier work
T1 construct: The Aβ42 peptide was produced by Bachem AG; purchased Bachem AG

Aβ42 [2] = target: T1, Aβ42; test: Polymerization assay (ThT fluorescence): inhibition of Aβ42 aggregation; type: biochemical; conditions: for IC50: 25 μM Aβ42, 1% DMSO, 50 mM phosphate buffer pH 7.5, 100 mM NaCl, ThT fluorescence
Description: The polymerization assay was performed as previously described in the literature. For single compounds, the reaction mixture contained 25 μM Aβ42, 0.3, 1.0, 3.0, 10, or 30 μM C, EC, GC, EGC, P-B1, or P-B3, 1% DMSO, 50 mM phosphate buffer (pH 7.5) and 100 mM NaCl. Prior to being tested, the compounds were dissolved in DMSO at concentrations of 30, 100 and 300 μM, and 1.0 and 3.0 mM, and then added to the reaction mixture to final concentrations 0.3, 1.0, 3.0, 10, and 30 μM, respectively. For the extract and its fractions, different concentration sequences were incubated in the reaction mixture. With the exception of one sequence (i.e., 3.0, 10, 30, 100 and 200 μg/mL) for Fr. Ts and another (i.e., 0.3, 1.0, 3.0, 10, 30 μg/mL) for Fr. Ps, one concentration sequence (i.e., 1.0, 3.0, 10, 30 and 100 μg/mL) was used for the extract and all of the other fractions.
(§1) The fluorescence measurements were recorded on an Envision® 2104 Multilabel Reader (Perkin Elmer, Waltham, MA, USA), with optimized excitation and emission wavelengths of 430 (BW 24 nm) and 470 nm (BW 24 nm), respectively. The reaction mixture contained 5 μM ThT and 50 mM of glycine-NaOH buffer (pH 8.5). The IC50 and EC50 values were calculated using the GraphPad Prism 5 software. All results were expressed as the mean ± SEM, and statistical analyses were performed using the Student’s t test.

preformed Aβ42 fibrils = target: T2, preformed Aβ42 fibrils (Homo sapiens, UniProt P05067); test: Destabilization assay (ThT fluorescence): destabilization of preformed Aβ42 fibrils; type: biochemical; conditions: for EC50: fibrils preformed from 25 μM Aβ42 (24 h, 37 °C), further 24 h at 37 °C with compound, ThT fluorescence
T2 construct: The Aβ42 peptide was produced by Bachem AG; purchased Bachem AG
Description: The destabilization assay used to evaluate the activities of the polyphenolic compounds towards the destabilization of preformed fibrils was performed as described by Ono et al.. Briefly, a reaction mixture containing 25 μM Aβ42 and 50 mM phosphate buffer (pH 7.5 and 100 mM NaCl) was incubated on a PCR system for 24 h at 37 °C to form fibrils. All of the test compounds (i.e., C, EC, GC, EGC, P-B1, and P-B3) were initially dissolved in DMSO at concentrations of 30, 100 and 300 μM, and 1 and 3 mM, before being added to the reaction mixture to give final concentrations of 0.3, 1.0, 3.0, 10, and 30 μM, respectively. The resulting mixtures were continued the incubation of 24 h at 37 °C, and then subjected to fluorescent measurements as in the polymerization assay.
as §1

T1 sequence (P05067 672-713 limits assumed, species assumed): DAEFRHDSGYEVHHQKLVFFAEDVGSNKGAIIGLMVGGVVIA
T2 sequence (P05067 672-713 limits assumed, species assumed): as above

| Compound | activity towards Aβ42 aggregation in vitro (in words) (Aβ42 [1]) | IC50 (Aβ42 [2]) | EC50 (preformed Aβ42 fibrils) | inhibitory activity towards Aβ42 aggregation (in words) (Aβ42 [2]; this paper's polymerization assay) | ability to destabilize fibrils (in words) (preformed Aβ42 fibrils; this paper's destabilization assay) |
| --- | --- | --- | --- | --- | --- |
| ginkgolide B | very little activity | – | – | – | – |
| Oc1cc(O)c2c(c1)O[C@H](c1ccc(O)c(O)c1)[C@H](O)[C@H]2c1c(O)cc(O)c2c1O[C@H](c1ccc(O)c(O)c1)[C@@H](O)C2 [P-B1, Procyanidin B1] | – | 3.28 ± 0.46 µM | 3.51 ± 0.32 µM | – | – |
| Oc1cc(O)c2c(c1)O[C@H](c1ccc(O)c(O)c1)[C@@H](O)[C@@H]2c1c(O)cc(O)c2c1O[C@H](c1ccc(O)c(O)c1)[C@@H](O)C2 [P-B3, procyanidin B3] | – | 3.54 ± 0.39 µM | 5.12 ± 0.75 µM | – | – |
| CC(C)(C)[C@]1(O)CC2OC(=O)CC23C(=O)OC2OC(=O)[C@H](O)C231 (stereo partly drawn) [bilobalide] | very little activity | – | – | – | – |
| C[C@@H]1C(=O)O[C@H]2C[C@@]34[C@H]5C[C@@H](C(C)(C)C)[C@]36[C@@H](OC(=O)[C@@H]6O)O[C@@]4(C(=O)O5)[C@]21O [ginkgolides A, ginkgolide A] | very little activity | – | – | – | – |
| Oc1cc(O)c2c(c1)O[C@H](c1cc(O)c(O)c(O)c1)[C@H](O)C2 [EGC, (−)-epigallocatechin] | – | 8.51 ± 0.96 µM | 7.76 ± 0.94 µM | – | – |
| Oc1cc(O)c2c(c1)O[C@H](c1ccc(O)c(O)c1)[C@H](O)C2 [EC, (−)-epicatechin] | – | 9.44 ± 0.24 µM | 5.99 ± 0.6 µM | – | – |
| Oc1cc(O)c2c(c1)O[C@H](c1cc(O)c(O)c(O)c1)[C@@H](O)C2 [GC, (−)-gallocatechin] | – | 17.5 ± 0.57 µM | 15.7 ± 3.19 µM | least influence | least influence |
| Oc1cc(O)c2c(c1)O[C@H](c1ccc(O)c(O)c1)[C@@H](O)C2 [C, (+)-catechin] | very little activity | 14.9 ± 3.42 µM | 5.27 ± 1.26 µM | – | – |
